Source: ChEMBL document CHEMBL4689842, “EUbOPEN Chemogenomics Library wave 1” (2021)

Assays:
Format in all cases: toxicity, cell-based
HEK-293T = assay: Incucyte cell viability with HEK293T; details: human, 10 µM, compound concentration 10 uM
Fibroblast = assay: Incucyte cell viability with human fibroblast; details: 10 µM, compound concentration 10 uM
U2OS = assay: Incucyte cell viability with U2OS; details: human, 10 µM, compound concentration 10 uM
[1] = 0 h, replicate number 1, timepoint 0 hours
[2] = 0 h, replicate number 2, timepoint 0 hours
[3] = 6 h, replicate number 1, timepoint 6 hours
[4] = 6 h, replicate number 2, timepoint 6 hours
[5] = 12 h, replicate number 1, timepoint 12 hours
[6] = 18 h, replicate number 1, timepoint 18 hours
[7] = 24 h, replicate number 1, timepoint 24 hours
[8] = 24 h, replicate number 2, timepoint 24 hours
[9] = 12 h, replicate number 2, timepoint 12 hours
[10] = 18 h, replicate number 2, timepoint 18 hours
Note: filed as whole numbers so only -1 and 0 and 1 occur.

CSc1ccc(C(=O)N[C@@H]2CCCC[C@@H]2NC(=O)CNC(=O)c2cc(C(F)(F)F)ccc2NC(=O)NC(C)C)cc1
Growth Rate (HEK-293T; [1]): 1 | Growth Rate (HEK-293T; [2]): 0 | Growth Rate (HEK-293T; [3]): 0 | Growth Rate (HEK-293T; [4]): 1 | Growth Rate (HEK-293T; [5]): 0 | Growth Rate (HEK-293T; [6]): 0 | Growth Rate (HEK-293T; [7]): 0 | Growth Rate (Fibroblast; [1]): 0 | Growth Rate (Fibroblast; [3]): 1 | Growth Rate (Fibroblast; [5]): 1 | Growth Rate (Fibroblast; [6]): 1 | Growth Rate (Fibroblast; [7]): 0 | Growth Rate (Fibroblast; [8]): 1 | Growth Rate (U2OS; [1]): 0 | Growth Rate (U2OS; [4]): 0 | Growth Rate (U2OS; [5]): 1 | Growth Rate (U2OS; [9]): 0 | Growth Rate (U2OS; [6]): 0 | Growth Rate (U2OS; [10]): 1 | Growth Rate (U2OS; [7]): 0 | Growth Rate (U2OS; [8]): 1

CC(C)(C)NCC(O)COc1cccc2[nH]c(=O)[nH]c12.Cl (stereo unspecified)
Growth Rate (HEK-293T; [1]): 1 | Growth Rate (HEK-293T; [2]): 0 | Growth Rate (HEK-293T; [3]): 0 | Growth Rate (HEK-293T; [5]): 0 | Growth Rate (HEK-293T; [6]): 1 | Growth Rate (HEK-293T; [7]): 1 | Growth Rate (HEK-293T; [8]): 0 | Growth Rate (Fibroblast; [1]): 0 | Growth Rate (Fibroblast; [4]): 0 | Growth Rate (Fibroblast; [5]): 1 | Growth Rate (Fibroblast; [9]): 0 | Growth Rate (Fibroblast; [6]): 1 | Growth Rate (Fibroblast; [7]): 1 | Growth Rate (U2OS; [1]): 0 | Growth Rate (U2OS; [4]): 0 | Growth Rate (U2OS; [5]): 1 | Growth Rate (U2OS; [6]): 1 | Growth Rate (U2OS; [7]): 1

CC(C)S(=O)(=O)c1ccc2nccc(Nc3ccc4scnc4c3)c2c1
Growth Rate (HEK-293T; [3]): 0 | Growth Rate (HEK-293T; [5]): 0 | Growth Rate (HEK-293T; [6]): 0 | Growth Rate (HEK-293T; [7]): 0 | Growth Rate (Fibroblast; [2]): 0 | Growth Rate (Fibroblast; [3]): 0 | Growth Rate (Fibroblast; [5]): 0 | Growth Rate (Fibroblast; [6]): 0 | Growth Rate (Fibroblast; [7]): 0 | Growth Rate (U2OS; [1]): 1 | Growth Rate (U2OS; [2]): 0 | Growth Rate (U2OS; [3]): 0 | Growth Rate (U2OS; [5]): 1 | Growth Rate (U2OS; [6]): 0 | Growth Rate (U2OS; [10]): 1 | Growth Rate (U2OS; [7]): 1

C[C@H](Cc1cc2c(c(C(N)=O)c1)N(CCCO)CC2)NCCOc1ccccc1OCC(F)(F)F [SILODOSIN]
Growth Rate (HEK-293T; [1]): 0 | Growth Rate (HEK-293T; [3]): 0 | Growth Rate (HEK-293T; [5]): 0 | Growth Rate (HEK-293T; [6]): 0 | Growth Rate (HEK-293T; [7]): 0 | Growth Rate (Fibroblast; [1]): 0 | Growth Rate (Fibroblast; [3]): 0 | Growth Rate (Fibroblast; [5]): 0 | Growth Rate (Fibroblast; [6]): 0 | Growth Rate (Fibroblast; [7]): 1 | Growth Rate (Fibroblast; [8]): 0 | Growth Rate (U2OS; [1]): 0 | Growth Rate (U2OS; [4]): 0 | Growth Rate (U2OS; [5]): 1 | Growth Rate (U2OS; [9]): 0 | Growth Rate (U2OS; [6]): 1 | Growth Rate (U2OS; [7]): 1 | Growth Rate (U2OS; [8]): 0

Nc1nc(NCc2ccccc2)nc(-c2ccccc2CO)n1 [Ogerin]
Growth Rate (HEK-293T; [1]): 1 | Growth Rate (HEK-293T; [2]): 0 | Growth Rate (HEK-293T; [3]): 0 | Growth Rate (HEK-293T; [4]): 1 | Growth Rate (HEK-293T; [5]): 1 | Growth Rate (HEK-293T; [6]): 1 | Growth Rate (HEK-293T; [7]): 0 | Growth Rate (HEK-293T; [8]): 1 | Growth Rate (Fibroblast; [1]): 1 | Growth Rate (Fibroblast; [3]): 0 | Growth Rate (Fibroblast; [5]): 0 | Growth Rate (Fibroblast; [6]): 0 | Growth Rate (Fibroblast; [7]): 0 | Growth Rate (U2OS; [2]): 0 | Growth Rate (U2OS; [4]): 1 | Growth Rate (U2OS; [5]): 1 | Growth Rate (U2OS; [6]): 1 | Growth Rate (U2OS; [7]): 1

Cc1cccc(-c2cnc3occ(-c4ccc(C(=O)O)c(C5CCCC5)c4)c3c2)c1
Growth Rate (HEK-293T; [1]): 1 | Growth Rate (HEK-293T; [2]): 0 | Growth Rate (HEK-293T; [6]): 1 | Growth Rate (HEK-293T; [7]): 1 | Growth Rate (Fibroblast; [2]): 1 | Growth Rate (Fibroblast; [3]): 0 | Growth Rate (Fibroblast; [5]): 0 | Growth Rate (Fibroblast; [6]): 0 | Growth Rate (Fibroblast; [7]): 0 | Growth Rate (U2OS; [1]): 0 | Growth Rate (U2OS; [3]): 0 | Growth Rate (U2OS; [5]): 1 | Growth Rate (U2OS; [9]): 0 | Growth Rate (U2OS; [6]): 0 | Growth Rate (U2OS; [10]): 1 | Growth Rate (U2OS; [7]): 1

C[C@H]1CC(=O)Nc2cc(C(=O)NCCC3CC3)ccc2N1C(=O)N1CC2CC2C1 (stereo partly specified)
Growth Rate (HEK-293T; [1]): 0 | Growth Rate (HEK-293T; [2]): 1 | Growth Rate (HEK-293T; [4]): 1 | Growth Rate (HEK-293T; [9]): 0 | Growth Rate (HEK-293T; [6]): 1 | Growth Rate (HEK-293T; [7]): 0 | Growth Rate (HEK-293T; [8]): 1 | Growth Rate (Fibroblast; [1]): 0 | Growth Rate (Fibroblast; [3]): 0 | Growth Rate (Fibroblast; [5]): 1 | Growth Rate (Fibroblast; [9]): 0 | Growth Rate (Fibroblast; [6]): 0 | Growth Rate (Fibroblast; [7]): 1 | Growth Rate (Fibroblast; [8]): 0 | Growth Rate (U2OS; [1]): 1 | Growth Rate (U2OS; [3]): 0 | Growth Rate (U2OS; [5]): 1 | Growth Rate (U2OS; [6]): 1 | Growth Rate (U2OS; [7]): 1

O=C(O)C[C@H]1CCc2c1[nH]c1ccc(OCc3ccc(C4CCCC4)c(C(F)(F)F)c3)cc21 [ETRASIMOD]
Growth Rate (HEK-293T; [1]): 0 | Growth Rate (HEK-293T; [3]): 1 | Growth Rate (HEK-293T; [5]): 0 | Growth Rate (HEK-293T; [9]): 1 | Growth Rate (HEK-293T; [6]): 0 | Growth Rate (HEK-293T; [10]): 1 | Growth Rate (HEK-293T; [7]): 0 | Growth Rate (Fibroblast; [1]): 0 | Growth Rate (Fibroblast; [2]): 1 | Growth Rate (Fibroblast; [3]): 1 | Growth Rate (Fibroblast; [4]): 0 | Growth Rate (Fibroblast; [5]): 1 | Growth Rate (Fibroblast; [6]): 1 | Growth Rate (Fibroblast; [7]): 0 | Growth Rate (Fibroblast; [8]): 1 | Growth Rate (U2OS; [1]): 0 | Growth Rate (U2OS; [2]): 1 | Growth Rate (U2OS; [4]): 0 | Growth Rate (U2OS; [5]): 0 | Growth Rate (U2OS; [9]): 1 | Growth Rate (U2OS; [6]): 1 | Growth Rate (U2OS; [7]): 1

Cc1nc(C2CCN(C(=O)c3ccc(OC(F)(F)F)cc3N)CC2)c2ncc(N3CCN(C)CC3)cc2n1 [BAY-693]
Growth Rate (HEK-293T; [1]): 0 | Growth Rate (HEK-293T; [2]): 1 | Growth Rate (HEK-293T; [8]): 1 | Growth Rate (Fibroblast; [1]): 1 | Growth Rate (Fibroblast; [2]): 0 | Growth Rate (Fibroblast; [3]): 1 | Growth Rate (Fibroblast; [5]): 1 | Growth Rate (Fibroblast; [6]): 1 | Growth Rate (Fibroblast; [7]): 1 | Growth Rate (U2OS; [1]): 0 | Growth Rate (U2OS; [3]): 0 | Growth Rate (U2OS; [4]): 1 | Growth Rate (U2OS; [5]): 0 | Growth Rate (U2OS; [9]): 1 | Growth Rate (U2OS; [6]): 0 | Growth Rate (U2OS; [10]): 1 | Growth Rate (U2OS; [7]): 0 | Growth Rate (U2OS; [8]): 1
